How the values were obtained:
[1] = tested on: c-myc G-quadruplex DNA (DNA, G4) TGGGGAGGGTGGGGAGGGTGGGGAAGG; experiment: fluorescent intercalator displacement; conditions: 100 mM KCl, thiazole orange 1 μM displaced, DNA 0.5 μM
[2] = tested on: c-myc G-quadruplex DNA (DNA, G4) TGGGGAGGGTGGGGAGGGTGGGGAAGG; experiment: UV-vis titration; conditions: 100 mM KCl
[3] = tested on: c-myc G-quadruplex DNA FRET probe (FAM/TAMRA) (DNA, G4) TGGGGAGGGTGGGGAGGGTGGGGAAGG; experiment: FRET melting; conditions: 100 mM KCl, 10 mM Na3AsO4; 10 mM Tris-HCl pH 7.4; 0.2 μM DNA; complex 0.15 or 0.30 μM, not given
c-myc G-quadruplex DNA = experiment: UV–vis absorption titration with c-myc G-quadruplex DNA; assay type: binding; conditions: 10 mM Tris-HCl buffer (pH 7.4), 100 mM KCl, [DNA]=100 μM
Procedure: Electron spectroscopy is one of the most widely used techniques to evaluate the binding ability between metal complexes and DNA. UV–vis spectra titration experiments were conducted to further clarify the binding behavior of these complexes with c-myc G-quadruplex DNA.
The intramolecular c-myc G-quadruplex DNA structure was prepared by incubating Pu22 in a 10 mM Tris-HCl buffer (pH 7.4) containing 100 mM KCl, which was heated to 95 °C for 5 min, cooled to room temperature overnight, and stored at 4 °C for 24 h. The binding parameters of the arene Ru(II) complexes and c-myc G-quadruplex DNA were measured at room temperature using the UV–vis absorption spectra (Shimadzu UV-2550 spectrophotometer). […] The intrinsic binding constant (Kb) was calculated using the following:[DNA]/(εa − εf) = [DNA]/(εb − εf) + 1/[Kb(εb − εf)](2)
In the formula, εa, εf, and εb are the apparent coefficients, and the free and fully bound forms of the metal complex extinction coefficients, respectively. […] Kb is the ratio of the slope to the intercept.

[4] = tested on: human liver carcinoma HepG2 cells; experiment: MTT assay, HepG2; assay type: cell-based; conditions: 72 h, 570 nm
[5] = tested on: human lung cancer A549 cells; experiment: MTT assay, A549; assay type: cell-based; conditions: 72 h, 570 nm
[6] = tested on: human keratinocyte Hacat cells; experiment: Cytotoxic activity against Hacat cells; assay type: cell-based; conditions: 72 h incubation
Procedure: The cytotoxic activity of the ligands and arene Ru(II)-modified compounds […] 1 . The cytotoxic activities of complexes against human keratinocyte […] 72 h incubation. Comp. L1 L2 3 6 […] 7. Multiple gene expression in glioblastoma multiforme Figure S20. Multiple gene expression in glioblastoma multiforme(Copyright © 2017 […], Boxi Kang. Zhang's Lab.). The darker the color, the higher the gene expression in glioblastoma multiforme. As shown in the heat map, c-myc gene is highly expressed in glioblastoma multiforme (GBM) compared with other G-quadruplex DNA (Tel, Bcl-2, c-kit, k-ras). 8. […]

[7] = tested on: human glioblastoma U87 cells; experiment: MTT assay, U87; assay type: cell-based; conditions: 72 h, 570 nm
[8] = tested on: human breast cancer MCF-7 cells; experiment: MTT assay, MCF-7; assay type: cell-based; conditions: 72 h, 570 nm
human normal liver cells = experiment: Toxicity to human normal liver cells; conditions: read-out: IC50 human normal liver cells
[9] = 10 mM Tris-HCl pH 7.4, room temperature
[10] = 10 mM Tris-HCl pH 7.4, room temperature, 20 μM complex

| SMILES | DC50 [1, 9] | Kb [2, 10] | ΔTm [3] | IC50 [4] | IC50 [5] | IC50 [7] | IC50 [8] | also measured |
| --- | --- | --- | --- | --- | --- | --- | --- | --- |
| Cc1ccc(C(C)C)cc1.Fc1cccc(-c2nc3c4cccnc4c4ncccc4c3[nH]2)c1F.[Cl-].[Ru+2] | 10.26 µM | ~ 134 × 10^6 M^-1 | 5.07 °C |  |  |  |  |  |
| Fc1ccc(-c2nc3c4cccnc4c4ncccc4c3[nH]2)c(F)c1 |  |  |  |  |  |  |  | binding ([2]; 10 mM Tris-HCl pH 7.4, DNA 100 μM, no significant absorption change): weak |
| Cc1ccc(C(C)C)cc1.Fc1ccc(-c2nc3c4cccnc4c4ncccc4c3[nH]2)c(F)c1.[Cl-].[Ru+2] | 15.6 µM | ~ 14.6 × 10^6 M^-1 | 0.4 °C |  |  |  |  |  |
| Fc1cccc(-c2nc3c4cccnc4c4ncccc4c3[nH]2)c1F.[Cl-].[Ru+2].c1ccccc1 | 6.6 µM | ~ 67.5 × 10^6 M^-1 | 13.09 °C |  |  |  |  |  |
| Cc1ccccc1.Fc1cccc(-c2nc3c4cccnc4c4ncccc4c3[nH]2)c1F.[Cl-].[Ru+2] | 9.93 µM |  | 15.05 °C |  |  |  |  | Kb [2]: ~ 110 × 10^6 M^-1 |
| Fc1ccc(-c2nc3c4cccnc4c4ncccc4c3[nH]2)c(F)c1 [L2, 2-(2,4-Di-fluorophenyl) Imidazole[4,5f][1,10]-Phenanthroline] |  |  |  | 0.12 ± 0.01 µM | 3.42 ± 0.13 µM | 5.87 ± 0.27 µM | 1.48 ± 0.09 µM | UV absorption peak of the ligand after the addition of DNA (c-myc G-quadruplex DNA): did not change significantly; IC50 [6]: 2.72 ± 0.06 µM; IC50 (human normal liver cells): 0.18 µM |
| Cc1ccccc1.Fc1ccc(-c2nc3c4cccnc4c4ncccc4c3[nH]2)c(F)c1.[Cl-].[Ru+2] | 10.8 µM |  | 6.03 °C |  |  |  |  | Kb [2]: ~ 41.1 × 10^6 M^-1 |
| Fc1cccc(-c2nc3c4cccnc4c4ncccc4c3[nH]2)c1F [L1, 2-(2,3-Di-fluorophenyl) Imidazole [4,5f][1,10]-Phenanthroline] |  |  |  | 0.29 ± 0.01 µM | 7.99 ± 0.05 µM | 14.3 ± 0.47 µM | 4.25 ± 0.18 µM | IC50 [6]: 1.85 ± 0.03 µM; IC50 (human normal liver cells): 0.34 µM |
| N.N.[Cl][Pt][Cl] [Cisplatin, reference compound] |  |  |  | 9.9 ± 0.06 µM | 17.3 ± 0.26 µM | 32.6 ± 0.85 µM | 15.3 ± 0.18 µM |  |
| Fc1ccc(-c2nc3c4cccnc4c4ncccc4c3[nH]2)c(F)c1.[Cl-].[Ru+2].c1ccccc1 |  | ~ 48.3 × 10^6 M^-1 | 7.23 °C |  |  |  |  | DC50 ([1]; 10 mM Tris-HCl pH 7.4, text b19 prints 7.8): 7.6 µM |
